Measurements reported in patent publication US20180093308A1, “METHANOGENESIS CONTROL DURING ENVIRONMENTAL APPLICATIONS USING ANTIMETHANOGENIC REAGENTS” (Innovative Environmental Technologies, Inc, priority 2016, published 2018).

Test system: Archaea
Test: Laboratory Study 4: methane concentration in control and test samples with AMRs
Format: cell-based
Method: Use of diallyl sulfide, which may be considered a synthetic garlic oil (GOS), was evaluated for its ability to control Archaea compared to the effects of other potential AMRs such as natural/pressed Garlic Oil (GO) and dehydrated Garlic Powder (GP). Control samples with and without contaminants were captured along with test samples that included contaminants and different concentrations (250 ppm and 500 ppm) of different AMRs (GO, GOS and GP). The concentration of methane in each of the samples was measured at 0, 9, 16 and 23 days.

SMILES: C=CCSCC=C [GOS, diallyl sulfide]
- control response in terms of methane production (250 ppm and 500 ppm, 23 days incubation): best control response
- length and magnitude of antimethanogenic responses (500 ppm lasting longer than 250 ppm): concentration dependent
